Results taken from patent US10577361B2, “Dopamine D3 receptor antagonists having a morpholine moiety” (Indivior UK Limited, priority 2015, dated 2020).
Structures can show the parent of a compound that is named as a salt.

Experiments:
[1] = biological target: T1, human dopamine receptor type 2, long variant (hD2L) (Homo sapiens (Human), UniProt P14416); assay: Functional calcium assay at hD2 recombinant receptor (CHO-Gα16-hD2L cells, FLIPR); type: cell-based; details: functional pKi at hD2, dopamine EC80 challenge; for Ki: read-out: D2 fp Ki (converted)
Protocol: Functional Calcium Assay at hD2 Recombinant Receptor CHO cells stably expressing human dopamine receptor type 2, long variant (hD2L), coupled to Gα16 protein (CHO-Gα16-hD2L) were seeded into black walled clear-base 384-well plates at a density of 8,000 cells per well and grown overnight at 37° C. […] Compounds of invention were dissolved in DMSO and 200-fold diluted with assay buffer plus 0.01% Pluronic F-127. […] The fluorescence before compound addition (baseline) and before and after addition of agonist challenge was monitored.

[2] = biological target: human dopamine type 3 receptor (hD3) (Homo sapiens (Human), UniProt P35462); assay: [3H]-Spiperone binding assay at hD3 recombinant receptor (CHO-hD3 membranes); details: pKi only estimated to be accurate to about ±0.3-0.5
Protocol: [^3H]-Spiperone Binding Assay at hD3 and hD4 recombinant receptors CHO cells transiently transfected with human dopamine type 3 or 4 receptors (CHO-hD3 or CHO-hD4, respectively), were re-suspended in 20 mM HEPES, 2 mM EDTA (pH 7.4), homogenised and centrifuged at 40,000 g (20 min, 4° C.). After re-suspension, homogenization and centrifugation as above, the final pellet was re-suspended in 20 mM HEPES, 100 mM NaCl, 10 mM MgCl2, 1 mM EDTA (pH 7.4) and aliquots were kept at −80° C. [^3H]-Spiperone Binding experiments were performed in 96 deep-well polypropylene plates in 50 mM Tris/HCl, 120 mM NaCl, 5 mM KCl, 5 mM MgCl2 (pH 7.4). Compounds of invention were serially diluted in DMSO at 100 fold final concentrations in the assay (1% DMSO final in the assay). Displacement was performed in the presence of 0.3 nM [^3H]-Spiperone. The reaction was initiated by the addition of membrane suspension (4 μg and 12 μg of protein for CHO-hD3- and CHO-hD4 membranes, respectively) and lasted for 90 or 100 min (for hD3 or hD4 membranes, respectively) at 23° C. in a final volume of 500 μl. Non specific binding (NSB) was determined in the presence of 1 μM Spiperone. The binding reaction was stopped by rapid filtration through GF/B filterplates pre-soaked in 0.5% polyetylenimmine (PEI) using a Packard cell harvester. After washing with ice-cold 0.9% NaCl, the plate was left to dry before the addition of Microscint 20 ([…], PerkinElmer). Radioactivity was counted with a TopCount (PerkinElmer). Data were analysed by non-linear regression analysis using GraphPad Prism 5.0 (GraphPad Software). Saturation binding experiments were performed similar to the competition binding experiments using a radioligand concentrations ranging from 0.015 to 4.0 nM. […] Characterization of the human dopamine D3 receptor expressed in transfected cell lines.

[3] = biological target: T1, human dopamine receptor type 2, long variant (hD2L); assay: [3H]-Spiperone binding assay at hD2 recombinant receptor (CHO-Gα16-hD2L membranes)
Protocol: [^3H]-Spiperone Binding Assay at hD2 Recombinant Receptor CHO cells stably expressing human dopamine receptor type 2, long variant (hD2L), coupled to Gα16 protein (CHO-Gα16-hD2L) were re-suspended in 20 mM HEPES, 2 mM EDTA (pH 7.4), homogenised and centrifuged at 40,000 g (20 min, 4° C.). After re-suspension, homogenization and centrifugation as above, the final pellet was re-suspended in 20 mM HEPES, 100 mM NaCl, 10 mM MgCl2, 1 mM EDTA (pH 7.4) and aliquots were kept at −80° C. [^3H]-Spiperone Binding experiments were performed in 96 deep-well polypropylene plates in 50 mM Tris/HCl, 120 mM NaCl, 5 mM KCl, 5 mM MgCl2 (pH 7.4). […] Displacement was performed in the presence of 0.08 nM [^3H]-Spiperone. The reaction was initiated by the addition of membrane suspension (2 μg of protein for CHO-hD2 membranes) and lasted for 120 min at 23° C. in a final volume of 1000 μl. Non specific binding (NSB) was determined in the presence of 0.1 μM Spiperone. The binding reaction was stopped by rapid filtration through GF/B filterplates pre-soaked in 0.5% polyetylenimmine (PEI) using a Packard cell harvester. After washing with ice-cold 0.9% NaCl, the plate was left to dry before the addition of Microscint 20 (50 μl/well, PerkinElmer). Radioactivity was counted with a TopCount (PerkinElmer). […] Saturation binding experiments were performed similar to the competition binding experiments using a radioligand concentrations ranging from 0.011 to 3.0 nM. […] Is Clozapine selective for the dopamine D4 receptor? […] Real-time analysis of dopamine: antagonist interactions at recombinant human D2long receptor upon modulation of its activation state. Brit. J.

Sequence of human dopamine type 3 receptor (hD3) (P35462 whole entry): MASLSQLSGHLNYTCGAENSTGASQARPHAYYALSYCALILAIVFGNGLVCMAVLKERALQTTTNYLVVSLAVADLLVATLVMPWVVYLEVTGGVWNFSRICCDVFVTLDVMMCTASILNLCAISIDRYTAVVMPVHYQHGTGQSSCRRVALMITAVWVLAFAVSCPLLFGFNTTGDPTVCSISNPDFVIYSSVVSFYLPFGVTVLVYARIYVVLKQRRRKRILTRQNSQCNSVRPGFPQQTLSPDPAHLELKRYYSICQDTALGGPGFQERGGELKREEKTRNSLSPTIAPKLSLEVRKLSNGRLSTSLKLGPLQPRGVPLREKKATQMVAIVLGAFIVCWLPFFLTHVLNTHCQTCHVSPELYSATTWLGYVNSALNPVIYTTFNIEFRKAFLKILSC

| Structure (SMILES) | D3 p Ki [2] | D2 p Ki [3] | Ki [1] | D2 fp Ki [1] | Ki ([3]; read-out: D2 p Ki (converted)) |
| --- | --- | --- | --- | --- | --- |
| Cc1ncoc1-c1nnc(SCCCCN2CCO[C@H](c3ccc(C(F)(F)F)cc3)C2)n1C (single isomer, unassigned) [Example 6, (2R or 2S)-4-(4-{[4-methyl-5-(4-methyl-1,3-oxazol-5-yl)-4H-1,2,4-triazol-3-yl]sulfanyl}butyl)-2-[4-(trifluoromethyl)phenyl]morpholine] | 7.11 |  |  | <5 |  |
| Cc1ncoc1-c1nnc(SCCCN2CCO[C@H](c3ccc(C(F)(F)F)cc3)C2)n1C (single isomer, unassigned) [Example 9, (2R or 2S)-4-(3-{[4-methyl-5-(4-methyl-1,3-oxazol-5-yl)-4H-1,2,4-triazol-3-yl]sulfanyl)}propyl)-2-[4-(trifluoromethyl)phenyl]morpholine] |  | 5.36 |  | 5.64 |  |
| Cc1ncoc1-c1nnc(SCCCN2CCO[C@H](c3ccc(C(F)(F)F)cc3)C2)n1C (single isomer, unassigned) [Example 10, (2R or 2S)-4-(3-({[4-methyl-5-(4-methyl-1,3-oxazol-5-yl)-4H-1,2,4-triazol-3-yl]sulfanyl}propyl)-2-[4-(trifluoromethyl)phenyl]morpholine hydrochloride] |  |  | > 10 µM |  | 11.7 µM |
| Cc1ccc(C2CN(CCCSc3nnc(-c4ccc(-c5noc(C)n5)cc4)n3C)CCO2)cc1 (stereo not drawn) [Example 37, 4-[3-({4-methyl-5-[4-(5-methyl-1,2,4-oxadiazol-3-yl)phenyl]-4H-1,2,4-triazol-3-yl}sulfanyl)propyl]-2-(4-methylphenyl)morpholine] | 7.07 | 4.50 | 31.6 µM |  |  |

Continued, in another order:

| D3 p Ki [2] | D2 p Ki [3] | Ki [1] | Structure (SMILES) | D2 fp Ki [1] | Ki ([3]; read-out: D2 p Ki (converted)) |
| --- | --- | --- | --- | --- | --- |
| 6.56 |  |  | Cc1ncoc1-c1nnc(SCCCN2CCOC(c3ccc(F)cc3)C2)n1C (single isomer, unassigned) [Example 3, (2R or 2S)-2-(4-fluorophenyl)-4-(3-({[4-methyl-5-(4-methyl-1,3-oxazol-5-yl)-4H-1,2,4-triazol-3-yl]sulfanyl}propyl)morpholine] | <5 |  |
| 6.37 |  | > 10 µM | Cc1ncoc1-c1nnc(SCCCN2CCOC(c3ccc(F)cc3)C2)n1C (stereo not drawn) [Example 1] |  |  |
| 7.05 |  | > 10 µM | Cc1ncoc1-c1nnc(SCCCCN2CCOC(c3ccc(C(F)(F)F)cc3)C2)n1C (stereo not drawn) [Example 4, 4-(4-{[4-methyl-5-(4-methyl-1,3-oxazol-5-yl)-4H-1,2,4-triazol-3-yl]sulfanyl}butyl)-2-[4-(trifluoromethyl)phenyl]morpholine] |  |  |
| 7.18 | 4.65 |  | CC(=O)c1ccc(-c2nnc(SCCCN3CCOC(c4ccc(C(F)(F)F)cc4)C3)n2C)cc1 (stereo not drawn) [Example 32, 1-(4-{4-methyl-5-[(3-{2-[4-(trifluoromethyl)phenyl]morpholine-4-yl}propyl)sulfanyl]-4H-1,2,4-triazol-3-yl}phenyl)ethan-1-one] |  |  |
| 6.87 | <4.5 |  | Cn1c(SCCCN2CCOC(c3ccc(C(F)(F)F)cc3)C2)nnc1-c1ccc(S(N)(=O)=O)cc1 (stereo not drawn) [Example 33, 4-{4-methyl-5-[(3-{2-[4-(trifluoromethyl)phenyl]morpholine-4-yl}propyl)sulfanyl]-4H-1,2,4-triazol-3-yl}benzene-1-sulfonamide] |  |  |
| 6.71 | 4.96 |  | Cc1ncoc1-c1nnc(SCCCN2CCOC(c3ccc(C(F)(F)F)cc3F)C2)n1C (stereo not drawn) [Example 34] |  |  |
